In US20120107820A1, “Multiplexed Quantitative PCR End Point Analysis of Nucleic Acid Targets” (MASSACHUSETTS INSTITUTE OF TECHNOLOGY, priority 2009, published 2012):

Columns and labels:
[1] = system: HL60 (human promyelocytic leukemia) cells; assay: Gene expression profiling of tretinoin-treated HL60 cells, LMA RT-PCR amplicons detected on encoded hydrogel particles; type: cell-based; conditions: for Raw Signal (AU) / Differential Expression: log(tret/DMSO): HL60 cells; for Raw Signal (AU): 1 μmol/l tretinoin, five days; for Normalized Signal: normalized to LUA95, tretinoin-treated HL60 cells; for Differential Expression: log(tret/DMSO): tretinoin vs DMSO
Experimental: (§1) Gene expression profiling experiment were conducted to detect and quantify the effects of drug treatment on expression of certain target mRNAs in a complex sample using hydrogel particles. Applicants repeated previously reported multiplex ligation-mediated PCR experiments that used Luminex FlexMAP (Luminex, Austin, Tex., USA) optically addressed barcoded microspheres in side by side experiments with hydrogel particles using an endogenous reference gene for quantification. The methods used are described in Peck et al. A Method for High-Throughput Gene Expression Signature Analysis, Genome Biology, 7:R61, 2006; details are set forth in Example 3. Although the Peck et al experiments were done with traditional RT-PCR and hybridization in multiple steps, the experiments are amendable to embodiments of the present methods for one chamber quantitative multiplexed end point PCR.
(§2) HL60 (human promyelocytic leukemia) cells were cultured in the presence of either […] in DMSO or DMSO alone, and quantification was based on comparison of target mRNA expression to the reference gene […]. […] Upstream and downstream probe pairs designed for each of the targets by Peck were used to generate the amplicons. Unique upstream biotin-conjugated primers for each target included a 24 nucleotide bar code sequence for each of the five mRNAs. Applicants designed probes for immobilization on encoded hydrogel particles that were complementary to the 24 nucleotide bar code on each unique upstream primer to enable capture of the amplicons on encoded hydrogel particles. Methods for making the particles are described in Example 3. Each encoded hydrogel particle was made with multiple probe regions directed to each of the five mRNAs (four targets and one reference gene) and a control, respectively.
(§3) Total RNA was isolated from the HL60 cells, reverse-transcribed and amplified using a simple RT-PCR method. In order to compare the sensitivity of the encoded hydrogel particles to the Luminex magnetic particles, the exact protocol described by Peck et al. was followed. There were 39 cycles in which: there was an initial denaturation at 92° C. for 9 minutes, followed by denaturation at 92° C. for 30 s, followed by annealing at 60° C. for 30 s, extension at 72° C. for 30 s for 39 cycles, and a final extension at 72° C. for 5 minutes. After a final denaturation at 95° C. for two minutes hybridization was carried out at 45° C. for 60 minutes. Note that in the preferred embodiments of the present invention the hybridization temperature is from 2-15° C. […] than the primer annealing temperature to optimize specificity. By contrast, the hybridization temperature (45° C.) used by Peck et al. was 15° C. lower than the annealing temperature.
(§4) After hybridization, the respective Luminex and hydrogel particles were rinsed, incubated with streptavidin-phycoerythrin to fluorescently label the primers, rinsed again, and imaged for fluorescence. The fluorescent signals obtained were quantified and normalized against the internal reference (LUA95) after subtracting the background signal from the control region on each particle (CTL).
(§5) Similar to the protocol described in Peck et al., Genome Biology, 7:R61, 2006, HL60 (human promyelocytic leukemia) cells were cultured in RPMI supplemented with 10% fetal bovine serum and antibiotics. Cells were treated with 1 μmol/l tretinoin (all-trans retinoic acid; Sigma-Aldrich, St Louis, Mo., USA) in dimethyl sulfoxide (DMSO; final concentration 0.1%) or DMSO alone for five days. Total RNA was isolated from bulk cultures with TRIzol Reagent (Invitrogen, Carlsbad, Calif., USA), in accordance with the manufacturer's directions. For the classification exercise, microtiter plate cultures were treated with 200 nmol/l tretinoin or DMSO for two days to mimic the submaximal signatures likely to be encountered in a small molecule screen, and were and prepared for mRNA capture by the addition of Lysis Buffer (RNAture, Irvine, Calif., USA). […]

[2] = system: HL60 (human promyelocytic leukemia) cells; assay: Gene expression profiling of tretinoin-treated HL60 cells, LMA RT-PCR amplicons detected on Luminex microspheres; type: cell-based; conditions: for Raw Signal (AU) / Differential Expression: log(tret/DMSO): HL60 cells; for Raw Signal (AU): 1 μmol/l tretinoin, five days; for Normalized Signal: normalized to LUA95, tretinoin-treated HL60 cells; for Differential Expression: log(tret/DMSO): tretinoin vs DMSO
Experimental: as §1, §2, §3, §4, §5

[3] = LUA95 (GAPDH3 internal reference, NM_002046)

## CC1=C(/C=C/C(C)=C/C=C/C(C)=C/C(=O)O)C(C)(C)CCC1 [tretinoin]
[1]; LUA7 mRNA (NM_000962)
  Raw Signal (AU): 7.44 AU
  Normalized Signal: 0.084
  Differential Expression: log(tret/DMSO): 0.486
[1]; LUA27 mRNA (NM_006432)
  Raw Signal (AU): 14.64 AU
  Normalized Signal: 0.166
  Differential Expression: log(tret/DMSO): 0.818
[1]; LUA59 mRNA (NM_004095)
  Raw Signal (AU): 1.14 AU
  Normalized Signal: 0.013
  Differential Expression: log(tret/DMSO): −0.841
[1]; LUA68 mRNA (NM_003132)
  Raw Signal (AU): 2.99 AU
  Normalized Signal: 0.034
  Differential Expression: log(tret/DMSO): −0.822
[1]; [3]
  Raw Signal (AU): 88.45 AU
[2]; LUA7 mRNA (NM_000962)
  Raw Signal (AU): 389.3 AU
  Normalized Signal: 0.222
  Differential Expression: log(tret/DMSO): 0.785
[2]; LUA27 mRNA (NM_006432)
  Raw Signal (AU): 775.5 AU
  Normalized Signal: 0.442
  Differential Expression: log(tret/DMSO): 0.871
[2]; LUA59 mRNA (NM_004095)
  Raw Signal (AU): 100.3 AU
  Normalized Signal: 0.057
  Differential Expression: log(tret/DMSO): −0.576
[2]; LUA68 mRNA (NM_003132)
  Raw Signal (AU): 178.0 AU
  Normalized Signal: 0.101
  Differential Expression: log(tret/DMSO): −0.619
[2]; [3]
  Raw Signal (AU): 1754.4 AU
